Source: ChEMBL document CHEMBL5620382, “Fluoroindole chalcone analogues targeting the colchicine binding site of tubulin for colorectal oncotherapy” (Eur J Med Chem, 2023)
Calls of active or inactive are those of the source. The rule behind the calls is not given here.

What was measured:
HCT-116 [1] = assay: Induction of mitochondrial dysfunction in human HCT-116 cells assessed as reduction in oxygen consumption rate (OCR) incubated for 24 hrs; format: functional, cell-based; conditions: dose 1.25-20 µM
Mus musculus = assay: Antitumor activity against C57B/6-APCmin/+ mouse model assessed as increase in phosphorylation of eIF2alpha in tumors at 3 mg/kg, ip treated for 45 days relative to control; format: functional, organism-based; conditions: time 45.0 day
CT26 [2] = assay: Induction of endoplasmic reticulum (ER) stress in mouse CT26 cells assessed as increase in ROS level at 10 nM measured after 24 hrs by fluorescent analysis (reference value: 14%); format: functional
HCT-116 [3] = assay: Induction of apoptosis in human HCT116 cells assessed as dead cells at 2.5 to 20 nM measured after 24 hrs by PI/Annexin V-FITC staining based flow cytometry; format: functional, cell-based; conditions: dose 2.5-20 nM
CT26 [4] = assay: Induction of endoplasmic reticulum (ER) stress in mouse CT26 cells assessed as increase in ROS level at 20 nM measured after 24 hrs by fluorescent analysis (reference value: 14%); format: functional
CT26 [5] = assay: Induction of endoplasmic reticulum (ER) stress in mouse CT26 cells assessed as increase in ROS level at 10 to 40 nM measured after 24 hrs by DCFH-DA analysis; format: functional, cell-based; conditions: dose 10-40 nM
CT26 [6] = assay: Induction of mitochondrial dysfunction in mouse CT26 cells assessed as change in mitochondrial membrane potential (MMP) by JC-1 fluorescence assay; format: functional, cell-based; conditions: dose 2.5-40 µM
Tubulin = assay: Binding affinity to wild type tubulin (unknown origin) by MST analysis; format: protein-complex assay, Homo sapiens
CT26 [7] = assay: Induction of endoplasmic reticulum (ER) stress in mouse CT26 cells assessed as upregulation of cleaved-caspase 3 at 10 to 40 nM measured after 24 hrs by Western blot analysis; format: functional, cell-based; conditions: dose 10-40 nM
HCT-116 [8] = assay: Induction of endoplasmic reticulum (ER) stress in human HCT-116 cells assessed as increase p-eIF2alpha expression at 10 to 20 nM measured after 24 hrs by Western blot analysis; format: functional, cell-based; conditions: dose 10-20 nM
[9] = Toxicity in C57B/6-APCmin/+ mouse model assessed as organ toxicity at 3 mg/kg, ip treated for 45 days by H and E staining; format: organism-based; conditions: in vivo, 1080 h, time 45 day
HCT-116 [10] = assay: Induction of mitochondrial dysfunction in human HCT-116 cells assessed as change in mitochondrial membrane potential (MMP) by JC-1 fluorescence assay; format: functional, cell-based; conditions: dose 1.25-20 µM
NCM460 = assay: Antiproliferative activity against human NCM460 cells assessed as inhibition of proliferation at 2.5 to 20 nM measured after 24 hrs by CCK-8 assay; format: toxicity, cell-based; conditions: ncm460, 24 h, 0.02 µM, dose 2.5-20 nM
CT26 [11] = assay: Induction of endoplasmic reticulum (ER) stress in mouse CT26 cells assessed as increase in ROS level at 2.5 nM measured after 24 hrs by fluorescent analysis (reference value: 14%); format: functional
HCT-116 [12] = assay: Anti-tumor activity against human HCT-116 cells xenografted in BALB/c mouse assessed as inhibition of cell proliferation in tumor section at 3 mg/kg, ip thrice a week for three weeks by Ki-67 staining based assay; format: functional, organism-based; conditions: time 3.0 weeks
HCT-116 [13] = assay: Antiproliferative activity against human HCT-116 cells assessed as dead cells at 2.5 to 20 nM measured after 24 hrs by Calcein-AM/PI staining based immunofluorescence analysis; format: functional, cell-based; conditions: dose 2.5-20 nM
[14] = Toxicity in BALB/c mouse xenografted with human HCT116 cells assessed as side effects at 1.5 to 3 mg/kg, ip thrice a week for three weeks; format: organism-based, HCT-116; conditions: in vivo, 504 h, dose 1.5-3 mg/kg, time 3 weeks
CT26 [15] = assay: Induction of cell cycle arrest in mouse CT26 cells […] assessed as accumulation of cells at G2/M phase at 2.5 to 10 nM by flow cytometry analysis; format: functional, cell-based; conditions: dose 2.5-10 nM
CT26 [16] = assay: Induction of endoplasmic reticulum (ER) stress in mouse CT26 cells assessed as increase p-eIF2alpha expression at 10 to 40 nM measured after 24 hrs by Western blot analysis; format: functional, cell-based; conditions: dose 10-40 nM
HCT-116 [17] = assay: Cytotoxicity against human HCT-116 cells assessed as growth inhibition measured after 24 hrs in presence of GSK2606414 PERK inhibitor by CCK-8 assay; format: functional, cell-based
CT26 [18] = assay: Induction of endoplasmic reticulum (ER) stress in mouse CT26 cells assessed as increase in ROS level at 40 nM measured after 24 hrs by fluorescent analysis (reference value: 14%); format: functional
[19] = Toxicity in BALB/c mouse xenografted with human HCT116 cells assessed as change in body weight at 1.5 to 3 mg/kg, ip thrice a week for three weeks; format: organism-based, HCT-116; conditions: in vivo, 504 h, dose 1.5-3 mg/kg, time 3 weeks
PC-12 = assay: Antiproliferative activity against rat PC12 cells assessed as inhibition of proliferation at 2.5 to 20 nM measured after 24 hrs by CCK-8 assay; format: toxicity, cell-based; conditions: pc-12, 24 h, 0.02 µM, dose 2.5-20 nM
HCT-116 [20] = assay: Induction of cell cycle arrest in human HCT-116 cells […] assessed as accumulation of cells at G2/M phase at 2.5 to 10 nM by flow cytometry analysis; format: functional, cell-based; conditions: dose 2.5-10 nM
Tubulin (Homo sapiens) = Tubulin (Homo sapiens) (UniProt P68371+Q9H4B7+P0DPH7+P68366+Q13509+Q71U36+P04350+Q3ZCM7+P07437+P68363+Q9BQE3+Q6PEY2+Q13885+Q9BVA1+Q9BUF5); assay: Stabilization of microtubule in human HCT-116 cells at […] incubated for 1 hrs by CETSA; format: cell-based
CT26 [21] = assay: Antiproliferative activity against mouse CT26 cells assessed as dead cells at 2.5 to 40 nM measured after 24 hrs by Calcein-AM/PI staining based immunofluorescence analysis; format: functional, cell-based; conditions: dose 2.5-40 nM
HCT-116 [22] = assay: Induction of endoplasmic reticulum (ER) stress in human HCT-116 cells assessed as rough long-linear and irregularly dilated with locally verified expansion at 10 to 20 nM measured after 24 hrs by transmission electron microscope (TEM) analysis; format: functional, cell-based; conditions: dose 10-20 nM
HCT-116 [23] = assay: Induction of endoplasmic reticulum (ER) stress in human HCT-116 cells assessed as upregulation of cleaved-caspase 3 at 10 to 20 nM measured after 24 hrs by Western blot analysis; format: functional, cell-based; conditions: dose 10-20 nM
HCT-116 [24] = assay: Induction of endoplasmic reticulum (ER) stress in human HCT-116 cells assessed as organelle vacuoles at 10 to 20 nM measured after 24 hrs by transmission electron microscope (TEM) analysis; format: functional, cell-based; conditions: dose 10-20 nM
HCT-116 [25] = assay: Cytotoxicity against human HCT-116 cells assessed as growth inhibition at 1.25 to 20 uM measured after 24 hrs in presence of ROS scavenger NAC by CCK-8 assay; format: functional, cell-based; conditions: dose 1.25-20 µM
Colon cancer organoid = assay: Antitumor activity against patient-derived Colorectal cancer organoid model assessed as inhibition of organoid growth by immunofluorescence assay; format: functional, tissue-based; conditions: Homo sapiens
CT26 [26] = assay: Induction of mitochondrial damage in mouse CT26 cells at 10 to 40 nM measured after 24 hrs by transmission electron microscope (TEM) analysis; format: functional, cell-based; conditions: dose 10-40 nM
CT26 [27] = assay: Antiproliferative activity against mouse CT26 cells assessed as inhibition of proliferation measured after 24 hrs by CCK-8 assay; format: functional, cell-based; conditions: CT26, 24 h
Homo sapiens = organism: Homo sapiens; assay: Binding affinity to tubulin mutant (unknown origin) by MST analysis

In the case of COc1cc(C(=O)/C(C)=C/c2c[nH]c3cc(F)ccc23)cc(OC)c1OC, the Activity (HCT-116 [1]) is reported as “Dose-Dependent Effect”, the Activity (Mus musculus) is reported as “Active” and the Activity (CT26 [2]) is reported as 24.4%. The Activity (HCT-116 [3]) was “Active”, the Activity (CT26 [4]) was 60.1% and the Activity (CT26 [5]) was “Active”. The Activity (CT26 [6]) was “Dose-Dependent Effect”, the Kd (Tubulin) was 136 nM and the Activity (CT26 [7]) was “Active”. The Activity (HCT-116 [8]) was “Active”, the Activity [9] was “Non-Toxic” and the Activity (HCT-116 [10]) was “Dose-Dependent Effect”. For the same molecule, the Activity (NCM460) was “Non-Toxic”, the Activity (CT26 [11]) was 14.5% and the Activity (HCT-116 [12]) was “Active”. For the same molecule, the Activity (HCT-116 [13]) was “Active”, the Activity [14] was “Non-Toxic” and the Activity (CT26 [15]) was “Active”. For the same molecule, the Activity (CT26 [16]) was “Active”, the Activity (HCT-116 [17]) was “inactive” and the Activity (CT26 [18]) was 59.1%. For the same molecule, the Activity [19] was “Non-Toxic”, the Activity (PC-12) was “Non-Toxic” and the Activity (HCT-116 [20]) was “Active”. For the same molecule, the Activity (Tubulin (Homo sapiens)) was “inactive”, the Activity (CT26 [21]) was “Active” and the Activity (HCT-116 [22]) was “Active”. The Activity (HCT-116 [23]) was “Active”, the Activity (HCT-116 [24]) was “Active” and the Activity (HCT-116 [25]) was “inactive”. The IC50 (Colon cancer organoid) was 2.06 nM, the Activity (CT26 [26]) was “Active” and the IC50 (CT26 [27]) was 18.7 nM. For the same molecule, the Activity (Homo sapiens) was “inactive”.
